Assay results reported in patent publication US20180085341A1, “METHODS FOR TREATING CANCER” (BOSTON BIOMEDICAL, INC., priority 2015, published 2018).

Experiments:
Stat3 pathway = details: cellular; according to U.S. Pat. No. 8,877,803; cited from earlier work
p-Stat3 and β-catenin = experiment: cancer stemness biomarkers in human colon cancer xenograft tumor (SW480), immunofluorescence; type: in vivo; details: SW480 xenograft in nude mice, e.g. 50 mg/kg BID oral gavage, tumors harvested 24 hours after first dosing, FIG. 5
Protocol: The effects of 2-acetylnaphtho[2,3-b]furan-4,9-dione, a compound of formula (I), on cancer stem cell markers was examined in cancer xenograft models with and without paclitaxel.
Human cancer cells were subcutaneously implanted into the right flank of 5-7 weeks old female athymic nude mice. When tumor size reached 200 mm^3, animals were treated with 2-acetylnaphtho[2,3-b]furan-4,9-dione, for example, at 50 mg/kg (BID) by oral gavage (n=3/group), paclitaxel, or a combination of 2-acetylnaphtho[2,3-b]furan-4,9-dione and paclitaxel. Tumors were harvested at 24 hours after first dosing.
The harvested tissues were fixed in 3.7% neutral buffered formaldehyde at 4° C. for overnight. The paraffin was embedded, cut to about 5 microns, and affixed onto positively-charged slides. After being baked and de-paraffinized, the slides with tumor or control tissues were incubated in 10 mM sodium citrate (pH 6.0) for 10 minutes. After antigen retrieval, slides were probed with primary antibodies P-STAT3 (rabbit, Cell Signaling, 1:100), β-Catenine (mouse, Santa Cruz, 1:400) at 4° C. overnight, and then Alexa Fluor fluorescent dyes-conjugated secondary antibodies (1:500, Invitrogen). After mounting, the slides with ProLong mounting medium with DAPI (Invitrogen) were examined under a Zeiss fluorescence microscope with 20× objective, and analyzed with Zen software.

[1] = tested on: human lung cancer xenograft (A549); experiment: human lung cancer xenograft (A549) model, metabolic tumor volume; type: in vivo, mice; details: 2-acetylnaphtho[2,3-b]furan-4,9-dione 100 mg/kg daily oral, paclitaxel 10.0 mg/kg q3d iv, relative to control, FIG. 7
Protocol: The effects of 2-acetylnaphtho[2,3-b]furan-4,9-dione was examined in a human lung cancer xenograft (A549) model. Human lung cancer cells were implanted in mice and the resulting tumors were allowed to grow to a pre-determined size. Mice were treated orally with vehicle, 2-acetylnaphtho[2,3-b]furan-4,9-dione (100 mg/kg, daily, oral), paclitaxel (10.0 mg/kg, q3d, iv), or the combination of 2-acetylnaphtho[2,3-b]furan-4,9-dione (100 mg/kg, daily, oral) and paclitaxel (10.0 mg/kg, q3d, iv). The tumor sizes were monitored.

[2] = open label phase Ib dose-escalation study, safety, tolerability and RP2D; type: in vivo, human; details: in combination with weekly paclitaxel
Protocol: In the open label phase lb dose-escalation study, the safety, tolerability and recommended phase 2 dose (RP2D) of 2-acetylnaphtho[2,3-b]furan-4,9-dione in combination with paclitaxel were assessed in adult patients with advanced solid tumors.
The effects of 2-acetylnaphtho[2,3-b]furan-4,9-dione in combination with paclitaxel were clinically evaluated. […] Phase II accrual to disease-specific cohorts included patients with advanced, heavily pre-treated metastatic non-small cell lung cancer (NSCLC).

[3] = tested on: cancer patients (CRC patients); experiment: clinical trials, survival by Stat3/pStat3 expression level; type: in vivo, human; details: after treatment in clinical trials; at least in CRC patients
Excerpt: Thus, the higher the level of pStat3 found in a cancer patient before treatment, at least in CRC patients, the higher the overall survival (OS) upon administering a treatment comprising a compound of formula (I).

pStat3 and β-catenin = experiment: cancer stemness biomarkers in pancreatic adenocarcinoma cancer stem cells (Panc-1) in vitro; type: cell-based, human; details: Panc-1 cancer stem cells, FIG. 6
[4] = tested on: patients with advanced, previously treated pancreatic adenocarcinoma; details: weekly paclitaxel alone; Oettle et al, Anticancer Drugs 2000; cited from earlier work

Structure (SMILES)	IC50 (Stat3 pathway) [nM]	expression of p-Stat3 and β-catenin stem cell markers (p-Stat3 and β-catenin)	metabolic tumor volume [1]	recommended phase 2 dose of 2-acetylnaphtho[2,3-b]furan-4,9-dione [2] [mg BID]	overall survival of patients with higher expression levels of Stat3 [3]	staining for stem cell markers (pStat3, β-catenin) (pStat3 and β-catenin)	median overall survival (mOS) [4]
CC(=O)c1cc2c(o1)C(=O)c1ccccc1C2=O [2-acetylnaphtho[2,3-b]furan-4,9-dione]	~250	dramatically reduced expression	reduced metabolic tumor volume relative to control	480	prolonged overall survival	–	–
CC(=O)O[C@H]1C(=O)[C@@]2(C)[C@H]([C@H](OC(=O)c3ccccc3)[C@]3(O)C[C@H](OC(=O)[C@H](O)[C@@H](NC(=O)c4ccccc4)c4ccccc4)C(C)=C1C3(C)C)[C@]1(OC(C)=O)CO[C@@H]1C[C@@H]2O [paclitaxel]	–	–	reduced metabolic tumor volume relative to control	–	–	enhanced staining	about 17.5 weeks
